Where two headings read alike, the source gives them in different places.
Legend:
MCF10a = MCF10a cell growth inhibition; type: cell-based
Text: (§1) In FIG. 9-24 in vitro IC50 values for the GGTase I activity are reported. In Tables 7-15 in cell GI50 values for the growth inhibition of a variety of cancer cell lines (e.g., Jurkat, K562, MDA-MB-231, BT474, MCF7, MiaPaCa2, Aspc-1, Panc-1, Capan-2, CFpac-1, and MCF10a) are reported.

MCF7 = MCF7 cell growth inhibition; type: cell-based, human
Experimental: as §1
(§2) Cell viability was determined by Cell Counting Kit-8 (CCK-8, Dojindo, Kumamoto, Japan) as described previously (31). Cell viability was calculated relative to the DMSO control. Cell cycle profile was analyzed by flow cytometry as described previously (32).

Jurkat cells = assay: Jurkat cell growth inhibition; type: cell-based, human
Experimental: In Table 4 in cell GI50 values for the growth inhibition of Jurkat cells are reported. The GI50 value is the concentration of a test compound needed to produce 50% growth inhibition in the cell type listed. In Table 4 the isolated yield of each synthetic step for the synthesis of corresponding compounds are also reported.
(§3) Panc-1 cells (Pancreatic cancer cell line) and Jurkat cells (T-cell leukemia) were treated with 12.5 μM of P5-H6 or 12.5 μM of mP5-H6a for 72 hours. The cell number was counted as described in Example 5.
as §2

K562 cells = assay: K562 cell growth inhibition; type: cell-based, human
Experimental: K562 cells are a cell line of human erythroleukemia cells. The K562 cells were treated with P3-E5, P5-H6 or GGTI-298 (a known GGTI compound illustrated in FIG. 27) for 72 hours and then cell number was counted using cell counting kit-8 (Dojindo, Gaithersburg, Md.). Cell viability relative to the DMSO control and the known GGTI compound is plotted in FIG. 23.
as §2

GGTase-I = target: T1, GGTase-I (Rattus norvegicus, UniProt P53610+Q04631); assay: In vitro GGTase-I enzyme assay (IC50, kinetics); type: biochemical
T1 construct: purchased JENA BIOSCIENCE
Experimental: The GGTase-I assay was carried out using RhoA as a substrate protein, GGTase-I (JENA Bioscience) and [3H]geranylgeranyl pyrophosphate. Incubation was for 30 min at 37° C. GGTase-II (or RabGGTase) assay was carried out using YPTI as a substrate protein, GGTase-II (Calbiochem, San Diego, Calif.) plus REP1 (Calbiochem) and [3H]geranylgeranyl pyrophosphate. Incubation was for 30 min at 37° C. FIGS. 20D-20F show the three dimensional structure of GGTase I (D), FTsse (E) and GGTase II (F) which can be obtained from X-ray diffraction studies of protein crystals.
GGTase-I and FTase activities were determined by following the incorporation of radiolabeled isoprenoid [^3H]-geranylgeranyl or [^3H]-farnesyl into substrate proteins. FTase or GGTase-I (50 nM) were used to initiate reactions containing 0.4 μM of [^3H]-FPP or 0.5 μM of [^3H]-GGPP and 2 μM of MBP-tagged substrates (K-Ras4B for FTase; RhoA for GGTase-I) in 20 μl of buffer {50 mM Tris-HCl (pH 7.5), 10 mM MgCl2, […] and 5 mM DTT}. Inhibitors were added at the indicated concentrations. The final DMSO concentration was 2.5% for all samples.
Reactions were carried out for 10 min at 30° C. The reaction mixture was spotted onto a filter paper, treated with 10% trichloroacetic acid (TCA) followed by ethanol and acetone washing. The filter was counted using a scintillation counter. Kinetic assays in which the GGPP concentration was varied employed fixed concentrations of GGTase-I and RhoA, and reactions were carried out for 5 min. Similarly, fixed concentrations of GGTase-I and GGPP were used when the amount of RhoA was varied.

CFpac-1 = CFpac-1 cell growth inhibition; type: cell-based, human; settings: Homo sapiens, CFPAC-1, Tables 8-15; no unit printed there
Experimental: as §1, §2

Capan-2 = Capan-2 cell growth inhibition; type: cell-based, human; settings: no unit printed there
Experimental: as §1, §2

MiaPaCa2 = MiaPaCa2 cell growth inhibition; type: cell-based, human; settings: no unit printed there
Experimental: as §1, §2

Aspc-1 = Aspc-1 cell growth inhibition; type: cell-based, human; settings: Tables 8-15; no unit printed there; listed as P61C4
Experimental: as §1, §2

Panc-1 = Panc-1 cell growth inhibition; type: cell-based, human; settings: Tables 8-15; no unit printed there; listed as P61C4
Experimental: as §1, §3, §2

BT474 = BT474 cell growth inhibition; type: cell-based, human; settings: Tables 8-15; no unit printed there; listed as P61C4
Experimental: as §1, §2

[1] = Homo sapiens, MCF-10A, Tables 8-15, no unit printed there
[2] = Homo sapiens, MCF7, Tables 8-15, no unit printed there
[3] = Homo sapiens, Jurkat, Tables 8-15, no unit printed there, read-out: Jurkat GI50
[4] = Homo sapiens, K562, Tables 8-15, no unit printed there
[5] = Tables 8-15, no unit printed there (Table 7 head: μM unless otherwise specified), read-out: In vitro (GGTase I IC50)
[6] = Tables 3, 5, 7, read-out: In vitro (enzyme assay) IC50, GGTase I
[7] = Homo sapiens, Jurkat, Tables 4, 6, 7, read-out: Jurkat cell GI50
[8] = Tables 8-15, no unit printed there
[9] = Tables 8-15, no unit printed there, read-out: Jurkat GI50
[10] = Tables 4, 6, 7, read-out: Jurkat cell GI50
[11] = Tables 8-15, no unit printed there, listed as P61C4

Compound	GI50 (Jurkat cells; [3])	GI50 (K562 cells; [4])	IC50 (GGTase-I; [5])	IC50 (GGTase-I; [6])	GI50 (Jurkat cells; [7])	other results
CC(C)C[C@H](NC(=O)C1=CC[C@@H](c2cccc(Br)c2)N(S(=O)(=O)c2ccc(Cl)cc2)C1c1cccc(Cl)c1)C(N)=O (stereo partly drawn)	3.15 µM	7.06 µM	–	–	–	GI50 (MCF10a; [1]): 14.2 µM; GI50 (MCF7; [2]): 3.43 µM
Cc1ccccc1S(=O)(=O)N1[C@@H](c2ccc(Cl)cc2)C(COCC(=O)N[C@@H](Cc2ccccc2)C(=O)O)=C[C@H]1C(C)(C)C	12 µM	17 µM	0.1 µM	–	–	–
Cc1ccccc1S(=O)(=O)N1C(c2cccc(Cl)c2)C(C(=O)N[C@@H](CC(C)C)C(N)=O)=CC[C@H]1c1ccc(Cl)cc1 (stereo partly drawn) [drawing 202]	–	–	–	–	–	GI50 (CFpac-1): 13.7 µM; GI50 (Capan-2; Homo sapiens, Capan-2, Tables 8-15): 14 µM; GI50 (MiaPaCa2; Homo sapiens, MIA PaCa-2, Tables 8-15): 12 µM
NC(=O)[C@H](Cc1ccccc1)NC(=O)C1=CC[C@@H](c2cccc(Br)c2)N(S(=O)(=O)c2ccc(Cl)cc2)C1c1cccc(Cl)c1 (stereo partly drawn) [P61-D04]	4.86 µM	7.69 µM	1.3 µM	1.3 µM	4.86 µM	–
Cc1ccccc1S(=O)(=O)N1[C@@H](c2ccc(Cl)cc2)C(C(N)=O)=C[C@H]1C(C)(C)C	–	–	–	1.6 µM	11 µM	GI50 (K562 cells; Homo sapiens, K562, Table 7): 4.8 µM
COC(=O)[C@H](Cc1ccccc1)NC(=O)C1=C[C@@H](C(C)(C)C)N(S(=O)(=O)c2ccccc2C)[C@H]1c1ccc(Cl)cc1 [P61-A04]	19 µM	14 µM	> 50 µM	> 50 µM	19 µM	–
Cc1ccccc1S(=O)(=O)N1C(c2cccc(Cl)c2)C(CO)=CC[C@H]1c1ccc(Cl)cc1 (stereo partly drawn)	7.5 µM	5.8 µM	> 100 µM	–	–	–
CC(C)(C)[C@@H]1C=C(C(=O)N[C@@H](Cc2ccccc2)C(N)=O)[C@H](c2ccc(Cl)c(Cl)c2)N1S(=O)(=O)c1c(Cl)cccc1Cl [P61-D09]	4.91 µM	3.63 µM	> 50 µM	> 50 µM	4.91 µM	–
Cc1ccccc1S(=O)(=O)N1C(c2cccc(Cl)c2)C(C(=O)N[C@@H](CC(C)C)C(N)=O)=CC[C@H]1c1ccc(Cl)cc1 (stereo partly drawn) [drawing 214]	–	–	–	–	–	GI50 (MCF10a; [8]): > 20 µM; GI50 (Jurkat cells; [9]): 6.1 µM
Cc1ccccc1S(=O)(=O)N1[C@@H](c2ccc(Cl)cc2)C(C(=O)N[C@@H](Cc2ccccc2)C(=O)O)=C[C@H]1C(C)(C)C [drawing 152]	13 µM	20 µM	1.4 µM	–	–	–
CC(C)(C)[C@@H]1C=C(C(=O)O)[C@H](c2ccc(Cl)cc2)N1S(=O)(=O)c1c(Cl)cccc1Cl	2.76 µM	8.26 µM	4.4 µM	–	–	–
CC(C)C[C@H](NC(=O)C1=CC[C@@H](c2cccc(Cl)c2)N(S(=O)(=O)c2ccc(Br)cc2)C1c1cccc(Br)c1)C(N)=O (stereo partly drawn) [P61-C09]	–	–	> 50 µM	> 50 µM	–	GI50 (Jurkat cells; [10]): 6.38 µM; GI50 (Jurkat cells; Tables 8-15, no unit printed there, listed as P61C9, read-out: Jurkat GI50): 6.38 µM; GI50 (K562 cells; Tables 8-15, no unit printed there, listed as P61C9): 12.9 µM
Cc1ccccc1S(=O)(=O)N1[C@@H](c2ccc(Cl)cc2)C(C(=O)NO)=C[C@H]1C(C)(C)C	–	–	–	1.3 µM	4.02 µM	GI50 (MCF10a; Homo sapiens, MCF-10A, Table 7): 11.4 µM; GI50 (MCF7; Homo sapiens, MCF7, Table 7): 2.52 µM; GI50 (K562 cells; Homo sapiens, K562, Table 7): 10.3 µM
Cc1ccccc1S(=O)(=O)N1C(c2cccc(Cl)c2)C(C(=O)N[C@@H](CC(C)C)C(N)=O)=CC[C@H]1c1ccc(Cl)cc1 (stereo partly drawn)	6.1 µM	6.15 µM	–	–	–	GI50 (MCF10a; [1]): > 20 µM; GI50 (MCF7; [2]): 10.9 µM
CC(C)C[C@H](NC(=O)C1=CC[C@@H](c2cccc(Cl)c2)N(S(=O)(=O)c2ccc(Br)cc2)C1c1cccc(Br)c1)C(N)=O (stereo partly drawn) [P61-C10]	–	–	–	–	–	GI50 (Jurkat cells; [10]): 2.22 µM; GI50 (Jurkat cells; [9]): 2.22 µM; GI50 (K562 cells; [8]): 4.37 µM
Cc1ccccc1S(=O)(=O)N1[C@@H](c2ccc(Cl)cc2)C(C(=O)N[C@@H](Cc2ccccc2)C(N)=O)=C[C@H]1C(C)CC(C)(C)C (stereo partly drawn) [P61-C04]	–	–	> 50 µM	> 50 µM	–	GI50 (MCF10a; [11]): 11.3 µM; GI50 (Capan-2; Tables 8-15, listed as P61C4): 7.5 µM; GI50 (MCF7; [11]): 4.71 µM; GI50 (Jurkat cells; [10]): 6.4 µM; GI50 (Jurkat cells; Tables 8-15, no unit printed there, listed as P61C4, read-out: Jurkat GI50): 6.4 µM; GI50 (Aspc-1): 8.61 µM; GI50 (Panc-1): 8.6 µM; GI50 (K562 cells; [11]): 5.95 µM; GI50 (BT474): 10.1 µM; GI50 (MiaPaCa2; Tables 8-15, listed as P61C4): 6.7 µM
CC(C)C[C@H](NC(=O)C1=CC[C@@H](c2cccc(Br)c2)N(S(=O)(=O)c2ccc(F)cc2)C1c1cccc(Cl)c1)C(N)=O (stereo partly drawn) [P61-C11]	1.76 µM	10.2 µM	32.9 µM	32.9 µM	1.76 µM	–
COC(=O)[C@H](Cc1ccccc1)NC(=O)COCC1=C[C@@H](C(C)(C)C)N(S(=O)(=O)c2ccccc2C)[C@H]1c1ccc(Cl)cc1	3.51 µM	6.01 µM	2.1 µM	–	–	GI50 (MCF10a; [1]): 20 µM; GI50 (MCF7; [2]): 6.78 µM
Cc1ccccc1S(=O)(=O)N1[C@@H](c2ccc(Cl)cc2)C(COCC(=O)N[C@@H](Cc2ccccc2)C(N)=O)=C[C@H]1C(C)(C)C	1.3 µM	5 µM	0.7 µM	–	–	–
CC(C)(C)[C@@H]1C=C(C(=O)O)[C@H](c2ccc(Cl)cc2)N1S(=O)(=O)C(C)(C)C	5.36 µM	> 20 µM	28.9 µM	–	–	–
CC(C)(C)[C@@H]1C=C(C(=O)N[C@@H](Cc2ccccc2)C(N)=O)[C@H](c2ccc(Cl)c(Cl)c2)N1S(=O)(=O)C(C)(C)C [P61-E02]	–	–	2.7 µM	2.7 µM	–	GI50 (Jurkat cells; [10]): 4.57 µM; GI50 (Jurkat cells; Tables 8-15, no unit printed there, listed as P61E2, read-out: Jurkat GI50): 4.57 µM; GI50 (K562 cells; Tables 8-15, no unit printed there, listed as P61E2): 4.22 µM
CC(C)C[C@H](NC(=O)C1=CC[C@@H](c2cccc(Br)c2)N(S(=O)(=O)c2ccc(F)cc2)[C@H]1c1cccc(Cl)c1)C(N)=O [P61-D03]	0.32 µM	1.7 µM	6.9 µM	6.9 µM	0.32 µM	–
NC(=O)[C@H](Cc1ccccc1)NC(=O)C1=CC[C@@H](c2cccc(Cl)c2)N(S(=O)(=O)c2ccc(Cl)cc2)C1c1cccc(Cl)c1 (stereo partly drawn) [P61-D02]	1.96 µM	4.33 µM	–	–	1.96 µM	IC50 (GGTase-I; Tables 5, 14, read-out: In vitro (enzyme assay) IC50, GGTase I): 0.6 µM
Cc1ccccc1S(=O)(=O)N1[C@@H](c2ccc(Cl)cc2)C(CO)=C[C@H]1C(C)(C)C	–	–	–	2.2 µM	5.8 µM	GI50 (K562 cells; Homo sapiens, K562, Table 7): 6 µM
NC(=O)[C@H](Cc1ccccc1)NC(=O)C1=CC[C@@H](c2cccc(Br)c2)N(S(=O)(=O)c2ccc(Cl)cc2)C1c1cccc(Cl)c1 (stereo partly drawn) [P61-D05]	–	–	> 20 µM	> 20 µM	–	GI50 (Jurkat cells; [10]): 3.57 µM; GI50 (Jurkat cells; Tables 8-15, no unit printed there, listed as P61D5, read-out: Jurkat GI50): 3.57 µM; GI50 (K562 cells; Tables 8-15, no unit printed there, listed as P61D5): 10.3 µM
CC(C)(C)[C@@H]1C=C(C(=O)N[C@@H](Cc2ccccc2)C(N)=O)[C@H](c2ccc(Cl)c(Cl)c2)N1S(=O)(=O)C(C)(C)C [P61-D11]	5.91 µM	5.9 µM	> 50 µM	> 50 µM	5.91 µM	–
